Tests used:
CACO2 = assay: Modified MTT assay, colon panel CACO2; type: cell-based; conditions: Homo sapiens, Caco-2, MMR proficient, p53 mut, read-out: MMR201 IC50
Procedure: (§1) Relative drug sensitivities (Resistance Factor) and IC50 values were determined by a modified MTT assay (see, e.g., Mosmann, 1983; Plumb et al., 1989), as described below: • (1) Trypsinise a sub-confluent monolayer culture and collect cells in growth medium containing serum. Centrifuge the suspension (200 g, 5 minutes) to pellet cells, re-suspend in growth medium, and count cells. Dilute cells to a density of 5×10^3 cells/mL allowing 60 mL of cell suspension for 3 microtitre plates. Transfer cell suspension to a 10 cm petri dish, and with a multichannel pipette add 200 μL to each well of the central 10 columns of a flat bottomed 96-well plate (80 wells per plate) starting with column 2 and ending with column 11. Add 200 μL of growth medium to the 8 wells in columns 1 and 12. […] Pipette 6 mL of growth medium in to each of 7 universal containers (30 mL). Prepare 10 mL of the highest concentration of the drug and transfer 1.5 mL of this solution to the first universal container. Mix and then transfer 1.5 mL to the next universal container. Continue until the seventh universal container is reached. The concentrations should be chosen so that the highest concentration kills most of the cells and the lowest kills none of the cells.

LOVO (MSH2) = assay: Modified MTT assay, colon panel LOVO; type: cell-based; conditions: Homo sapiens, MMR deficient, p53 wt, read-out: MMR201 IC50
Procedure: as §1

[1] = tested on: HCT116 human colon tumour cell line grown as xenograft; assay: Xenograft study, HCT116 in nude mice; type: in vivo; conditions: single bolus day 0, MMR201 1 or 2 mg/kg i.v. (tolerated doses), cisplatin 6 mg/kg i.p. (maximum tolerated dose)
Procedure: (§2) For xenograft experiments, tumour cells were injected into the flanks of athymic nude mice and allowed to establish until palpable tumour could be detected. Following single bolus injection of drug, tumour growth was monitored using calliper measurement of tumour size and calculation of tumour volume.
(§3) Cells in exponential phase of growth were harvested with trypsin and re-suspended in phosphate buffered saline. About 10^7 cells in a total volume of 200 μL of PBS were injected subcutaneously in the right flank of CD1 nude mice. They were used for experiments after about 7 to 10 days by which time the mean tumour diameter was about 0.5 cm.
(§4) Mice were weighed and tumour volumes measured. The mice were randomised in groups of 6 and treated either with the drug or with the solvent alone. The drug was dissolved in DMSO and diluted in sterile PBS just before injection to give a final DMSO concentration of 1%. The drugs solution was prepared such that the injection volume was 5 μL per gram body weight. […]
(§5) Mice were then weighed daily and tumour volumes estimated from two measurements of the diameter taken at a 90° angle. The volume was determined by the formula: v=D^3/6×π, where v=volume and D is the mean diameter. Results (Mean and SEM) are expressed as the relative tumour volume, which is the tumour volume on any given day divided by the initial tumour volume calculated for each mouse.

[2] = tested on: A2780/cp70 human ovarian, cisplatin resistant, cell line grown as xenograft; assay: Xenograft study, A2780/cp70 in nude mice; type: in vivo; conditions: single bolus day 0, MMR201 1 mg/kg i.v. (tolerated dose), cisplatin 6 mg/kg i.p. (maximum tolerated dose)
Procedure: as §2, §3, §4, §5

PARP cleavage = assay: Apoptosis as determined by PARP cleavage; type: cell-based
p53 = assay: Induction of p53 expression; type: cell-based; conditions: at doses that were shown to induce apoptosis

Question: What does the source list for `CC[n+]1c(/C=C2\Sc3oc4ccccc4c3N2C)ccc2cc(C)ccc21.[I-]` [MMR201]?
Answer: IC50 (CACO2): 0.474 ± 0.016 µM; IC50 (LOVO (MSH2)): 0.431 ± 0.0112 µM; Tumour growth (relative tumour volume) of HCT116 xenograft [1]: inhibits growth; Tumour growth (relative tumour volume) of A2780/cp70 xenograft [2]: can inhibit growth; Apoptosis in MLH1 negative cells (PARP cleavage; MLH1 negative cells, PARP cleavage, 24 hours): increased apoptosis at lower drug concentrations; Apoptosis as determined by PARP cleavage (PARP cleavage; incubation for 24 hours): induces apoptosis; Induction of p53 expression (p53): does not induce expression of p53

Source: US20090247579A1, “2-[3H-THIAZOL-2-YLIDINEMETHYL]PYRIDINES AND RELATED COMPOUNDS AND THEIR USE” (CANCER RESEARCH TECHNOLOGY LIMITED, priority 2006, published 2009)
